Measured values from patent US10221440B2, “Method for determining the sensitivity of microorganisms to antimicrobial substances” (priority 2012, dated 2019).

Assays:
[1] = test system: bacteria in secretion from the wound of a dog with a wound infection; assay: Express determination of bacteria sensitivity, wound secretion of a dog; assay type: cell-based; conditions: ampicillin 1 μg/ml in enriched Columbia Agar, 37° C., lawn in control after 4-6 hours
Protocol: Express determination of bacteria sensitivity to ampicillin while inoculating material obtained from an animal (a dog) with a wound infection.
The method was carried out similarly to the way described in example 1.
Material to be investigated: secretion from the wound.
Nutrient medium: Columbia Agar medium enriched with horse serum and sheep red blood cells, vitamins and amino acids. Ampicillin was added to the medium in maximum concentration achievable at the location where the material was taken—1 μg/ml.
Material taken from the wound was plated using a swab on the medium in a Petri dish. Same medium and cultivation conditions (without ampicillin) were used for control purposes.
The culture was incubated at temperature of 37° C.

[2] = test system: bacteria in urine of a patient suffering from cystitis; assay type: cell-based
[3] = test system: aerobes in secretion of subgingival space of a patient with a disease of periodontium; assay: Sensitivity to antibiotics and their mixture, subgingival secretion, aerobic conditions; assay type: cell-based, aerobic bacteria; conditions: Columbia Agar, dishes 1-3, 37° C., whole observation period; lawn in control after 4 hours
Text: (§1) Express determination of sensitivity to a mixture of antibiotics, namely gentamicin (mainly affects aerobic bacteria) and metronidazole (active against anaerobic bacteria and microaerophils), while inoculating material obtained from a patient suffering from a disease of periodontium. Material to be investigated: freshly collected secretion of subgingival space. Nutrient medium: Columbia Agar medium enriched with sheep red blood cells and horse serum was used for cultivation in aerobic conditions. Anaerobic microorganisms were detected using Schaedler Agar containing sheep red blood cells and serum. […] were added to the medium: gentamicin (active against a wide range of aerobes) and metronidazole that selectively affects anaerobic bacteria. Medium in dishes 1 and 1a contains gentamicin; medium in dishes 2 and 2a contains metronidazole; medium in dishes 3 and 3a contains gentamicin and metronidazole; dishes 4 and 4a contain only the nutrient medium (control). The secretion of subgingival space was diluted fivefold using isotonic solution of sodium chloride and plated in the amount of 0.05 ml per dish using a spreader. […] The results were analyzed after 4, 8, 12, 20, 24 and 48 hours after the inoculation (anaerobic bacteria are characterized by lengthy growth).

[4] = test system: anaerobes in secretion of subgingival space of a patient with a disease of periodontium; assay: Sensitivity to antibiotics and their mixture, subgingival secretion, anaerobic conditions; assay type: cell-based, anaerobic bacteria; conditions: Schaedler Agar, dishes 1a-3a, 37° C., after 8 hours
Text: as §1

[5] = test system: fungi that cause diseases of plants (powdery mildew); assay: Express determination of sensitivity of plant-disease fungi to antifungal preparations; assay type: cell-based; conditions: 30° C., nystatin 0.4 mg/l; for growth in the well with the antifungal preparation: Sabouraud Agar with gentamicin 0.01 mg/l, after 8 hours, propiconazole 1%
Protocol: Express determination of the sensitivity of fungi that cause diseases of plants (powdery mildew) to antifungal preparations.
Material to be investigated: wipe sampling of isotonic solution of sodium chloride taken from affected areas of a leaf of a plant that has indications of fungi growth.
Nutrient medium: Sabouraud Agar medium enriched with mineral components, placed into a plate with six wells. in order to prevent the growth of bacteria, gentamicin was added to the agar in the amount of 0.01 mg/l. The antifungal preparations to be investigated were also added to the medium: 1st well—propiconazole, in final concentration of 1%; 2nd well—nystatin (0.4 mg/l); 3rd well—control without any antifungal preparations.
1.0 ml of isotonic solution a sodium chloride was washed from […] of the affected area. The material was plated using an inoculation loop.
The inoculations were cultivated at 30° C. The results were analyzed after 6, 8, 12, 20, 24 and 48 hours after the inoculation.

| Compound | microbial growth in aerobic conditions [3] | microbial growth in anaerobic conditions [4] | growth in the well with the antifungal preparation [5] | further results |
| --- | --- | --- | --- | --- |
| CC1(C)S[C@@H]2[C@H](NC(=O)[C@H](N)c3ccccc3)C(=O)N2[C@H]1C(=O)O [ampicillin] |  |  |  | bacterial growth in the dish with the antibiotic [1]: No bacterial growth |
| CC[C@H]1OC(=O)[C@H](C)[C@@H](O[C@H]2C[C@@](C)(OC)[C@@H](O)[C@H](C)O2)[C@H](C)[C@@H](O[C@@H]2O[C@H](C)C[C@H](N(C)C)[C@H]2O)[C@](C)(O)C[C@@H](C)CN(C)[C@H](C)[C@@H](O)[C@]1(C)O [azithromycin] |  |  |  | growth of bacteria in the presence of the antibiotic [2]: no growth |
| Cc1ncc([N+](=O)[O-])n1CCO [metronidazole] | Microbial growth | Microbial growth |  |  |
| C[C@@H]1[C@H](O)[C@@H](C)/C=C/C=C/CC/C=C/C=C/C=C/C=C/C(O[C@H]2O[C@H](C)[C@@H](O)[C@H](N)[C@@H]2O)CC2O[C@](O)(CC(O)C(O)CCC(O)CC(O)CC(O)CC(=O)O[C@H]1C)CC(O)C2C(=O)O (stereo partly drawn) [nystatin] |  |  | growth was observed | sensitivity of the mold to the preparation [5]: resistant |
| CCCC1COC(Cn2cncn2)(c2ccc(Cl)cc2Cl)O1 (stereo not drawn) [propiconazole] |  |  | No growth |  |
| gentamicin | Microbial growth | Microbial growth |  |  |
